Blank lines part the entries; values can stand above or below the molecule they belong to.
How the values were obtained:
[1] = biological target: T1, Carbonic anhydrase 9 (Homo sapiens, UniProt Q16790); assay: Inhibition of recombinant human carbonic anhydrase 9 preincubated for 15 mins by phenol red dye based stopped flow CO2 hydration assay
[2] = biological target: T1, Carbonic anhydrase 9; settings: at 1 nM
[3] = biological target: T1, Carbonic anhydrase 9; settings: at 0.01 µM
Description: Inhibition of recombinant human carbonic anhydrase 9 at 0.01 uM preincubated for 15 mins by phenol red dye based stopped flow CO2 hydration assay (Rvb = 0%)

[4] = biological target: T1, Carbonic anhydrase 9; settings: at 0.1 µM
Description: Inhibition of recombinant human carbonic anhydrase 9 at 0.1 uM preincubated for 15 mins by phenol red dye based stopped flow CO2 hydration assay (Rvb = 0%)

[5] = biological target: T1, Carbonic anhydrase 9; settings: at 1 µM
Description: Inhibition of recombinant human carbonic anhydrase 9 at 1 uM preincubated for 15 mins by phenol red dye based stopped flow CO2 hydration assay (Rvb = 0%)

[6] = system: K562; assay: Growth inhibition of human K562 cells at 10 uM incubated for 48 hrs by sulforhodamine B assay relative to control; assay type: functional; settings: K562, 48 h, read-out: GI
[7] = system: MOLT-4; assay: Growth inhibition of human MOLT4 cells at 10 uM incubated for 48 hrs by sulforhodamine B assay relative to control; assay type: functional; settings: MOLT-4, 48 h, read-out: GI
[8] = system: RPMI-8226; assay: Growth inhibition of human RPMI8226 cells at 10 uM incubated for 48 hrs by sulforhodamine B assay relative to control; assay type: functional; settings: RPMI-8226, 48 h, read-out: GI
[9] = system: EKVX; assay: Growth inhibition of human EKVX cells at 10 uM incubated for 48 hrs by sulforhodamine B assay relative to control; assay type: functional; settings: read-out: GI
[10] = system: A549; assay: Growth inhibition of human A549/ATCC cells at 10 uM incubated for 48 hrs by sulforhodamine B assay relative to control; assay type: functional; settings: A549, 48 h, read-out: GI
[11] = system: NCI-H226; assay: Growth inhibition of human NCI-H226 cells at 10 uM incubated for 48 hrs by sulforhodamine B assay relative to control; assay type: functional; settings: NCI-H226, 48 h, read-out: GI
[12] = system: NCI-H522; assay: Growth inhibition of human NCI-H522 cells at 10 uM incubated for 48 hrs by sulforhodamine B assay relative to control; assay type: functional; settings: NCI-H522, 48 h, read-out: GI
[13] = system: HCT-116; assay: Growth inhibition of human HCT116 cells at 10 uM incubated for 48 hrs by sulforhodamine B assay relative to control; assay type: functional; settings: HCT-116, 48 h, read-out: GI
[14] = system: KM12; assay: Growth inhibition of human KM12 cells at 10 uM incubated for 48 hrs by sulforhodamine B assay relative to control; assay type: functional; settings: KM12, 48 h, read-out: GI
[15] = system: SW-620; assay: Growth inhibition of human SW620 cells at 10 uM incubated for 48 hrs by sulforhodamine B assay relative to control; assay type: functional; settings: SW-620, 48 h, read-out: GI
[16] = system: MCF7; assay: Growth inhibition of human MCF7 cells at 10 uM incubated for 48 hrs by sulforhodamine B assay relative to control; assay type: functional; settings: MCF7, 48 h, read-out: GI
[17] = system: DU-145; assay: Growth inhibition of human DU145 cells at 10 uM incubated for 48 hrs by sulforhodamine B assay relative to control; assay type: functional; settings: DU-145, 48 h, read-out: GI
[18] = system: UO-31; assay: Growth inhibition of human UO31 cells at 10 uM incubated for 48 hrs by sulforhodamine B assay relative to control; assay type: functional; settings: UO-31, 48 h, read-out: GI
[19] = system: TK-10; assay: Growth inhibition of human TK10 cells at 10 uM incubated for 48 hrs by sulforhodamine B assay relative to control; assay type: functional; settings: TK-10, 48 h, read-out: GI
[20] = system: CAKI-1; assay: Growth inhibition of human Caki1 cells at 10 uM incubated for 48 hrs by sulforhodamine B assay relative to control; assay type: functional; settings: CAKI-1, 48 h, read-out: GI
[21] = system: ACHN; assay: Growth inhibition of human ACHN cells at 10 uM incubated for 48 hrs by sulforhodamine B assay relative to control; assay type: functional; settings: read-out: GI
[22] = system: 786-0; assay: Growth inhibition of human 786-0 cells at 10 uM incubated for 48 hrs by sulforhodamine B assay relative to control; assay type: functional; settings: 786-0, 48 h, read-out: GI
[23] = system: A498; assay: Growth inhibition of human A498 cells at 10 uM incubated for 48 hrs by sulforhodamine B assay relative to control; assay type: functional; settings: A498, 48 h, read-out: GI
[24] = system: SK-OV-3; assay: Growth inhibition of human SKOV3 cells at 10 uM incubated for 48 hrs by sulforhodamine B assay relative to control; assay type: functional; settings: SK-OV-3, 48 h, read-out: GI
[25] = system: OVCAR-4; assay: Growth inhibition of human OVCAR4 cells at 10 uM incubated for 48 hrs by sulforhodamine B assay relative to control; assay type: functional; settings: OVCAR-4, 48 h, read-out: GI
[26] = system: IGROV-1; assay: Growth inhibition of human IGROV1 cells at 10 uM incubated for 48 hrs by sulforhodamine B assay relative to control; assay type: functional; settings: IGROV-1, 48 h, read-out: GI
[27] = system: UACC-62; assay: Growth inhibition of human UACC62 cells at 10 uM incubated for 48 hrs by sulforhodamine B assay relative to control; assay type: functional; settings: UACC-62, 48 h, read-out: GI
[28] = biological target: Carbonic anhydrase 1 (Homo sapiens, UniProt P00915); assay: Inhibition of recombinant human carbonic anhydrase 1 preincubated for 15 mins by phenol red dye based stopped flow CO2 hydration assay
Carbonic anhydrase 1, sequence (P00915 whole entry): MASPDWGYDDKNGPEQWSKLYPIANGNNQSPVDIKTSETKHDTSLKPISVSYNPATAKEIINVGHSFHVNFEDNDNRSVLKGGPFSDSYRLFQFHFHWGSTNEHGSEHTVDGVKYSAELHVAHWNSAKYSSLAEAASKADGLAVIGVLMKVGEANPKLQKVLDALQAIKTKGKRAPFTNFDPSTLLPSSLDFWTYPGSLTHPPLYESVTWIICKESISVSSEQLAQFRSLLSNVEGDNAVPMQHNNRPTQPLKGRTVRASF

[29] = biological target: Carbonic anhydrase 2 (Homo sapiens, UniProt P00918); assay: Inhibition of recombinant human carbonic anhydrase 2 preincubated for 15 mins by phenol red dye based stopped flow CO2 hydration assay
[30] = biological target: Carbonic anhydrase 12 (Homo sapiens, UniProt O43570); assay: Inhibition of recombinant human carbonic anhydrase 12 preincubated for 15 mins by phenol red dye based stopped flow CO2 hydration assay
Carbonic anhydrase 12, sequence (O43570 whole entry): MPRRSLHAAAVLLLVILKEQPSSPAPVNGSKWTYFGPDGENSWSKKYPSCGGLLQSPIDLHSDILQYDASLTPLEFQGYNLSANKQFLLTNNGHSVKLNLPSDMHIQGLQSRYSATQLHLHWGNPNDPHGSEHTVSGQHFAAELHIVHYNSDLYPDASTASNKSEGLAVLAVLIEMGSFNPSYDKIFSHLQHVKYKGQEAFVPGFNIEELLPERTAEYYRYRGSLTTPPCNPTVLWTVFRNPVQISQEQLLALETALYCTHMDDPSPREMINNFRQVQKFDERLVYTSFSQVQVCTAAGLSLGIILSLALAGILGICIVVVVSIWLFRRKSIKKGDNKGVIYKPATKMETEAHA

Compound: CCCN1C(=O)/C(=N\Nc2ccc(S(N)(=O)=O)cc2)c2cc(Cl)ccc21
- Ki [1]: 13.1 nM

Compound: CN1C(=O)/C(=N\Nc2ccc(S(N)(=O)=O)cc2)c2ccccc21
- Ki [1]: 9.4 nM
- inhibition [2]: 17%
- inhibition [3]: 51%
- inhibition [4]: 75%
- inhibition [5]: 81%

Compound: CCOC(=O)CN1C(=O)/C(=N\Nc2ccc(S(N)(=O)=O)cc2)c2cc(Cl)ccc21
- Ki [1]: 38.8 nM
- inhibition of growth at 10 µM [6]: 15%
- inhibition of growth at 10 µM [7]: 21%
- inhibition of growth at 10 µM [8]: 11%
- inhibition of growth at 10 µM [9]: 16%
- inhibition of growth at 10 µM [10]: 17%
- inhibition of growth at 10 µM [11]: 18%
- inhibition of growth at 10 µM [12]: 18%
- inhibition of growth at 10 µM [13]: 10%
- inhibition of growth at 10 µM [14]: 12%
- inhibition of growth at 10 µM [15]: 10%
- inhibition of growth at 10 µM [16]: 21%
- inhibition of growth at 10 µM [17]: 10%
- inhibition of growth at 10 µM [18]: 18%
- inhibition of growth at 10 µM [19]: 29%
- inhibition of growth at 10 µM [20]: 24%
- inhibition of growth at 10 µM [21]: 30%
- inhibition of growth at 10 µM [22]: 10%
- inhibition of growth at 10 µM [23]: 10%
- inhibition of growth at 10 µM [24]: 10%
- inhibition of growth at 10 µM [25]: 10%
- inhibition of growth at 10 µM [26]: 13%
- inhibition of growth at 10 µM [27]: 24%
- inhibition [2]: 11%
- inhibition [3]: 42%
- inhibition [4]: 66%
- inhibition [5]: 76%

The remaining molecules from weak to strong by Ki [1], led by results:

- Ki [1]: 40.1 nM
Compound: CN1C(=O)/C(=N\Nc2ccc(S(N)(=O)=O)cc2)c2cc(Br)ccc21

- Ki [1]: 28.6 nM
Compound: CCCN1C(=O)/C(=N\Nc2ccc(S(N)(=O)=O)cc2)c2ccccc21

- Ki [1]: 15.9 nM
Compound: CCOC(=O)CN1C(=O)/C(=N\Nc2ccc(S(N)(=O)=O)cc2)c2ccccc21

- Ki [28]: 467 nM
- Ki [29]: 63.3 nM
- Ki [1]: 15.5 nM
- Ki [30]: 30.1 nM
Compound: NS(=O)(=O)c1ccc(N/N=C2\C(=O)Nc3ccccc32)cc1

From ChEMBL document CHEMBL4311999, “3-Hydrazinoisatin-based benzenesulfonamides as novel carbonic anhydrase inhibitors endowed with anticancer activity: Synthesis, in vitro biological evaluation and in silico insights” (Eur J Med Chem, 2019)
